Converted amounts (≈) assume the structure as drawn. Where two headings read alike, the source gives them in different places.
Experiments:
C. difficile spores = assay: Sporicidal activity: viable counts of C. difficile spores exposed to antibiotics; type: cell-based; conditions: for Viable counts of C. difficile spores: antibiotic at 100 µg/ml
Source text: An agent capable of killing, or preventing the successful germination of C. difficile spores would therefore be of considerable interest. To determine the effects of type B lantibiotics on C. difficile spores, suspensions of spores were exposed to antibiotics ([…]) and aliquots were taken at appropriate time points. The spores in each aliquot were filtered off and plated out on to Brazier's agar.

Clostridium difficile = assay: microbe, parasite or virus in culture; type: cell-based; conditions: for MIC: Clostridioides difficile, read-out: Minimal Inhibitory Concentration (MIC)
Source text: Compounds I to VII were screened against twelve clinical isolates of Clostridium difficile.
In addition, compounds L to LIII were screened against […] isolates of Clostridium difficile.

[1] = Stability in Simulated Intestinal Fluid (SIF), HPLC; type: in vitro ADME; conditions: 37° C.
Source text: (§1) The preferred method of dosage for the treatment of C. difficile infections is via the oral route of administration. […] Whilst the oral absorption of peptides and related substances of a molecular weight >1,000 Daltons is generally low, metabolism through peptidase enzymes is generally rapid and indeed forms an essential part of the normal digestion of food. The susceptibility of peptides towards enzymatic digestion in the stomach and intestine can reliably be estimated in vitro by measuring their stability in Simulated Gastric Fluid USP ([…], pepsin in saline, pH 1.2) and Simulated Intestinal Fluid USP (SIF, pancreatin in aqueous potassium dihydrogen phosphate, pH 6.8).
(§2) Nisin and mersacidin were tested for their susceptibility towards enzymatic digestion in the stomach and intestine. The SGF and SIF were based on the standard USP solutions for simulated gastric and simulated intestinal fluids and their activity confirmed against Bovine Serum Albumin (Hilger et al, 2001). The compounds were incubated in SGF or SIF at 37° C. and their concentrations quantified by analytical HPLC (UV detection at 210 nm). The potential degradation of each compound was also monitored qualitatively by measuring in vitro antibacterial activity against Micrococcus luteus.

Micrococcus luteus = assay: In vitro antibacterial activity against Micrococcus luteus during SGF/SIF incubation; type: cell-based; conditions: incubation in SGF or SIF at 37° C.
Description: as §2

[2] = Stability in Simulated Gastric Fluid (SGF), HPLC; type: in vitro ADME; conditions: 37° C.
Source text: as §1, §2

[3] = rat, 100 mg/kg oral
Description: Male Sprague-Dawley rats were dosed with compound VII at 100 mg/kg via the oral route. Faeces and urine were collected over a 48 h period in two batches (24 h and 48 h post dose). Blood samples were taken at various time points for the first 24 h.

C. difficile 630 = conditions: hamster, three times daily at 50 mg/kg/day for 5 days, groups of 6
Description: The in vivo efficacy of compound VII in the treatment of C. difficile infections was evaluated in the clindamycin-induced cecitis model in hamster (FIG. 4). Groups of 6 animals were given a subcutaneous dose of 10 mg/kg clindamycin phosphate. 24 hours later, the animals received oral inocula of ˜10^4 spores of C. difficile 630, prepared by heating overnight BHI culture fluids to 56° C. for 10 min and recovering spores by centrifugation and re-suspension of the pellet in an equal volume of PBS.

[4] = test system: Bacteroides thetaiotaomicron NCTC 10582
[5] = test system: Bifidobacterium adolescentis NCTC 11814
[6] = test system: Bifidobacterium longum NCTC 11818
[7] = test system: C. difficile strain VPI 10463; type: in vivo; conditions: hamster, three times daily at 50 mg/kg/day, 5-day dosing period
Description: The in vivo efficacy of two type B Lantibiotics in the treatment of C. difficile infections was evaluated in the standard animal model for CDAD: clindamycin-induced cecitis in hamster (FIG. 3). Four groups of six animals were dosed orally with approximately 10^7 cells of C. difficile strain VPI 10463 and 24 hours later with a subcutaneous dose of 10 mg/kg clindamycin phosphate.

[8] = test system: Bacteroides fragilis NCTC 9343

Compound: Cc1ncc([N+](=O)[O-])n1CCO [Metronidazole]
- Effect on C. difficile spore viability / germination (C. difficile spores): no significant effect on spore viability
- Viable counts of C. difficile spores (C. difficile spores; time 0 h): 177
- Viable counts of C. difficile spores (C. difficile spores; time 4 h): 154
- Viable counts of C. difficile spores (C. difficile spores; time 8 h): 144
- Viable counts of C. difficile spores (C. difficile spores; time 24 h): 120
- MIC (Clostridium difficile; C. difficile strain 027C): 0.25 µg/mL (≈ 1.46 µM)
- MIC (Clostridium difficile; C. difficile strain 27SM): 0.125 µg/mL (≈ 0.73 µM)
- MIC (Clostridium difficile; C. difficile strain 19126): 0.25 µg/mL (≈ 1.46 µM)
- MIC (Clostridium difficile; C. difficile strain 37779): 0.125 µg/mL (≈ 0.73 µM)
- MIC (Clostridium difficile; C. difficile strain B32): 0.125 µg/mL (≈ 0.73 µM)
- MIC (Clostridium difficile; C. difficile strain E4): 0.25 µg/mL (≈ 1.46 µM)
- MIC (Clostridium difficile; C. difficile strain E16): 8 µg/mL (≈ 46.7 µM)
- MIC (Clostridium difficile; C. difficile strain E101): 0.125 µg/mL (≈ 0.73 µM)
- MIC (Clostridium difficile; C. difficile strain P24): 0.25 µg/mL (≈ 1.46 µM)
- MIC (Clostridium difficile; C. difficile strain P49): 0.125 µg/mL (≈ 0.73 µM)
- MIC (Clostridium difficile; C. difficile strain P59): 0.25 µg/mL (≈ 1.46 µM)
- MIC (Clostridium difficile; C. difficile strain P62): 0.25 µg/mL (≈ 1.46 µM)

Compound: C=C1NC(=O)[C@@H]2NC(=O)[C@H](CC(C)C)NC(=O)[C@H](NC(=O)[C@@H]3CS[C@@H](C)[C@@H](NC(=O)[C@H](Cc4ccccc4)NC(=O)[C@@H]4NC(=O)[C@@H](N)CS[C@H]4C)C(=O)N[C@@H](CC(C)C)C(=O)N4CCC[C@H]4C(=O)NCC(=O)NCC(=O)NCC(=O)NCC(=O)N[C@@H](C(C)C)C(=O)N3)[C@H](C)SC[C@H](NC(=O)[C@H](CCC(=O)O)NC1=O)C(=O)N[C@@H]([C@@H](C)CC)C(=O)N/C=C\S[C@H]2C [Compound I, Mersacidin]
- Stability (degradation) in Simulated Intestinal Fluid [1]: essentially stable
- Effect on C. difficile spore viability / germination (C. difficile spores): inactivate or prevent C. difficile spores from germinating
- Viable counts of C. difficile spores (C. difficile spores; time 0 h): 177
- Viable counts of C. difficile spores (C. difficile spores; time 4 h): 0
- Viable counts of C. difficile spores (C. difficile spores; time 8 h): 0
- Viable counts of C. difficile spores (C. difficile spores; time 24 h): 0
- In vitro activity against M. luteus during the course of the experiment (Micrococcus luteus): remained unaltered
- Stability (degradation) in Simulated Gastric Fluid [2]: None of the compounds showed appreciable degradation

Compound: CC[C@H](C)[C@@H]1NC(=O)[C@@H]2NC(=O)[C@H](CC(C)C)NC(=O)[C@H](NC(=O)[C@@H]3CSC[C@@H](N)C(=O)N[C@@H](CO)C(=O)NCC(=O)N[C@@H](Cc4c[nH]c5ccccc45)C(=O)N[C@@H](C(C)C)C(=O)N3)[C@H](C)SC[C@H](NC(=O)[C@H](CCC(=O)O)NC1=O)C(=O)NCC(=O)N[C@H]1C(=O)N[C@@H](CC(C)C)C(=O)N[C@@H](C(C)C)C(=O)N[C@@H](CS[C@H]2C)C(=O)N[C@@H](C)C(=O)N[C@H](C(=O)NCCO)CS[C@H]1C [Compound VII, Deoxy-actagardine B N-[2-ethanolamine] monocarboxamide]
- Material recovered from plasma [3]: No material was recovered
- Material recovered from urine ([3]; urine collected over 48 h): No material was recovered
- Survival of infected animals (C. difficile 630): all 6 of the infected mice survived
- Stability (degradation) in Simulated Gastric Fluid [2]: None of the compounds showed appreciable degradation

Compound: C=C1NC(=O)[C@@H]2NC(=O)[C@H](CC(C)C)NC(=O)[C@H](NC(=O)[C@@H]3CS[C@@H](C)[C@@H](NC(=O)[C@H](Cc4c[nH]c5ccccc45)NC(=O)[C@@H]4NC(=O)[C@@H](N)CS[C@H]4C)C(=O)N[C@@H](CC(C)C)C(=O)N4CCC[C@H]4C(=O)NCC(=O)NCC(=O)NCC(=O)NCC(=O)N[C@@H](C(C)C)C(=O)N3)[C@H](C)SC[C@H](NC(=O)[C@H](CCC(=O)O)NC1=O)C(=O)N[C@@H](C(C)CC)C(=O)N/C=C\S[C@H]2C (stereo partly shown) [Compound IV, F3W Mersacidin]
- Minimal Inhibitory Concentration (MIC) (E. faecium): 32 µg/mL
- Minimal Inhibitory Concentration (MIC) (E. coli): >64 µg/mL
- Minimal Inhibitory Concentration (MIC) [4]: 16 µg/mL
- Minimal Inhibitory Concentration (MIC) [5]: 32 µg/mL
- Minimal Inhibitory Concentration (MIC) [6]: 16 µg/mL
- Survival of infected animals [7]: survived for the duration of the entire 5-day dosing period
- Minimal Inhibitory Concentration (MIC) (Clostridium difficile): 2 µg/mL
- Minimal Inhibitory Concentration (MIC) [8]: 32 µg/mL

Compound: CC[C@H](C)[C@@H]1NC(=O)[C@H](C(C)C)NC(=O)[C@@H]2NC(=O)CNC(=O)[C@@H]3CS[C@@H](C)[C@@H](NC(=O)[C@@H]4CSC[C@@H](N)C(=O)N[C@@H](CO)C(=O)NCC(=O)N[C@@H](Cc5c[nH]c6ccccc56)C(=O)N[C@@H](C(C)C)C(=O)N4)C(=O)N[C@@H](CC(C)C)C(=O)N[C@@H](C(=O)N[C@@H]([C@@H](C)CC)C(=O)N[C@@H](CCC(=O)O)C(=O)N3)[C@H](C)SC[C@H](NC1=O)C(=O)N[C@@H](C)C(=O)N[C@H](C(=O)NCCO)C[S+]([O-])[C@H]2C (stereo partly shown) [Compound VI, Actagardine N-[2-ethanolamine] monocarboxamide]
- Stability (degradation) in Simulated Intestinal Fluid [1]: essentially stable
- Survival of infected animals [7]: survived for the duration of the entire 5-day dosing period
- Stability (degradation) in Simulated Gastric Fluid [2]: None of the compounds showed appreciable degradation
